Test results as given in patent publication US8178506B2, “Oligomeric compounds and compositions for use in modulation of small non-coding RNAs” (Regulus Therapeutics Inc., priority 2003, dated 2012).
e = 2'-O-(2-methoxyethyl) (MOE); d = 2'-deoxy (DNA)

Test system: mir-15a pri-miRNA
Experiment: mir-15a pri-miRNA expression in T47D cells (real-time RT-PCR)
Assay type: cell-based, human
Conditions: real-time RT-PCR
In short: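 T47D cells transfected with 100 nM uniform 2′-MOE or gapmer oligomers. Pri-miRNA measured by real-time RT-PCR with a mir-15a-specific primer/probe set, normalized to 5.8S rRNA, expressed as percentage of untreated control RNA levels.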

## 129690 (antisense TTAGAATACGTCGCGTTATG; sugars from the 5' end e5 d10 e5, all phosphorothioate, methylation of C not given here) [compound 129690]
  mir-15a pri-miRNA expression % UTC: 121 % UTC
